Laboratory results: US20240057587A1, “ORGANIC AMMONIUM SALT AND HYDROGEN-BONDING MATERIAL TREATMENT AGENT USING SAME” (MIYOSHI OIL & FAT CO.,LTD., priority 2019, published 2024)
Like-named read-outs stand apart in the source and are kept apart here.

Legend:
[1] = 0.25 g compound, 0.50 g water, 0.10 g zinc oxide; for Zinc oxide dispersibility: visual
[2] = for Redispersibility Dye: Vali Fast Black 3830 dispersion liquid dried at 50° C. under reduced pressure for three hours, 0.7 g water added, remixed, visual
[3] = for Redispersibility Titanium oxide: dispersion liquid dried at 50° C. under reduced pressure for three hours, 0.50 g water added, remixed, visual
[4] = Metal oxide dispersibility test (titanium oxide); format: physicochemical; conditions: 0.25 g compound, 0.50 g water, 0.10 g titanium oxide (IV); for Titanium oxide dispersibility: visual
[5] = Organic dye dispersibility test; format: physicochemical; conditions: 0.2 g compound, 0.7 g water; for Dye dispersibility: 0.1 g Vali Fast Black 3830, ultrasonic dispersion, after 24 hours, visual
[6] = Carbon nanotube dispersibility test; format: physicochemical; conditions: 0.25 g compound, 0.75 g water, 0.025 g carbon nanotubes; for Carbon nanotube dispersibility: visual
cytochrome C [7] = molecular target: T1, cytochrome C (Equus caballus, UniProt P00004); assay: Protein long-term stability (IR and UV spectrum), solid sample; set-up: species or system Horse; conditions: cytochrome C, solid sample, 40° C., 80% RH, after 30 days
T1 construct: a reagent produced by NACALAI TESQUE, INC; (Horse Heart, molecular weight 12384) was used; purchased NACALAI TESQUE, INC; host or cells: horse heart (tissue origin)

urease [8] = molecular target: T2, urease (Canavalia ensiformis, UniProt P07374); format: biochemical, sword bean; conditions: urease in 50 wt % aqueous solution of compound; 40° C., 80% RH; after 30 days; Stabilizer:Enzyme = 1:1
cytochrome C [9] = molecular target: T1, cytochrome C; assay: Protein long-term stability, 50% aqueous solution; set-up: species or system Horse; conditions: cytochrome C in 50 wt % aqueous solution of compound; 40° C.; after 30 days; 1:1
Description: At first, changes in amide absorption by IR spectrum were precisely observed, and there were confirmed the higher-order structures of protein (turn, α-helix, random coil, β-sheet). The amide I region (1,600 to 1,700 cm^−1) and the amide II region (1,500 to 1,600 cm^−1) were measured by ATR method using a Fourier transform infrared spectrophotometer (FT/IR-6100 by JASCO Corporation), and peaks were then detected based on a difference(s) between a cytochrome C-free organic ammonium salt sample (blank) and a cytochrome C-containing organic ammonium salt sample (sample).
Further, the activity state of cytochrome C (Fe^2+: reduced form, Fe^3+: oxidized form) was confirmed via absorptions in UV spectrum. The measurement was conducted using an ultraviolet-visible spectrophotometer and a quartz cell having an optical path width of 2 mm, immediately after diluting the cytochrome C-containing organic ammonium salt sample to 1% with a 50 mM phosphate buffer of pH 7.4 (prepared using 50 mM potassium dihydrogen phosphate and 50 mM dipotassium hydrogen phosphate).

urease [10] = molecular target: T2, urease; format: biochemical, sword bean; conditions: solid sample, 40° C., 80% RH, after 30 days
[11] = 0.25 g compound, 0.50 g water, 0.10 g barium titanate; for Barium titanate dispersibility: visual
urease [12] = molecular target: T2, urease; format: biochemical, sword bean; conditions: urease, 40° C., 80% RH, after 30 days, 1:1; for Enzyme activity retention rate (%) (after 30 days) Stabilizer:Enzyme = 1:1, Mixed by mortar: solid sample mixed by mortar; for Enzyme activity retention rate (%) (after 30 days) Stabilizer:Enzyme = 1:1, Solvent distilled away from dissolution solution: solid sample
[13] = for Redispersibility Zirconium oxide: dispersion liquid dried at 50° C. under reduced pressure for three hours, 0.50 g water added, remixed, visual
[14] = Metal oxide dispersibility test (zirconium oxide); format: physicochemical; conditions: 0.25 g compound, 0.50 g water, 0.10 g zirconium oxide (IV); for Zirconium oxide dispersibility: visual
DNA = DNA long-term stability, 50% aqueous solution; conditions: 40° C., 80% RH

T1 sequence (P00004 whole entry): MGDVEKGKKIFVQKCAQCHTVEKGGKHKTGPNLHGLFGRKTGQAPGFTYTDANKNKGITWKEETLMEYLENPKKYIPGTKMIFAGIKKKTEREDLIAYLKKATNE
T2 sequence (P07374 whole entry, looked up): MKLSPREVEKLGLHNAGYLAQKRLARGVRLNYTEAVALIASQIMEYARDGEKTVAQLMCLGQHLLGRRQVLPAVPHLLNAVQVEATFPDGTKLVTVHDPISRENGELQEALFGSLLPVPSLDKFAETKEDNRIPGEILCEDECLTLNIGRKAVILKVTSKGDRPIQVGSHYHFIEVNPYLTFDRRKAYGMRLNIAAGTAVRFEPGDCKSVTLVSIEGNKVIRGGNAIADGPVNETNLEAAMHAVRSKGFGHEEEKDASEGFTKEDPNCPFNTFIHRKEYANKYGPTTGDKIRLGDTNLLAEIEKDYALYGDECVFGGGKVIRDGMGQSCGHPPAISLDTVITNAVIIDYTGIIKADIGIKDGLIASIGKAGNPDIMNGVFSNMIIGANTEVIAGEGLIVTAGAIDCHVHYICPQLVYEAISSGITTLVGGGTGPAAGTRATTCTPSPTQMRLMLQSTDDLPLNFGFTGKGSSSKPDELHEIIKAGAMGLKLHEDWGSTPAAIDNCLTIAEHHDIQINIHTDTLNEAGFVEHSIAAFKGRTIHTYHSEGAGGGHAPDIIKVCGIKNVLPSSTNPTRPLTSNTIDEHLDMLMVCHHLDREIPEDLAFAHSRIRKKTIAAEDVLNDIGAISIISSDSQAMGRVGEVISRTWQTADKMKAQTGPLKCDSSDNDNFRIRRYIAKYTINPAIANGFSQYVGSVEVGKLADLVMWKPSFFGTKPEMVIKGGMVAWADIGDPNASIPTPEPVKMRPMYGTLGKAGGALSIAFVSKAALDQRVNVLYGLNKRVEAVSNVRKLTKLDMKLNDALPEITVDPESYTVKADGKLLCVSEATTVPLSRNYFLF

NC(CO)(CO)CO [Working example 28]
Zinc oxide dispersibility [1]: ○ ○ ○ ○ | Redispersibility Dye [2]: ○ ○ ○ ○ | Redispersibility Titanium oxide [3]: ○ ○ ○ ○ | Titanium oxide dispersibility [4]: ○ ○ ○ ○ | Dye dispersibility [5]: ○ ○ ○ ○ | Carbon nanotube dispersibility [6]: ○ ○ | Protein long-term stability (after 30 days) Stabilizer: Protein = 0.1:1 (cytochrome C [7]): ◯ | Protein long-term stability (after 30 days) Stabilizer: Protein = 1:1 (cytochrome C [7]): ◯ | Protein long-term stability (after 30 days) Stabilizer: Protein = 10:1 (cytochrome C [7]): ◯ | Enzyme activity retention rate(%) (after 30 days) Stabilizer: Enzyme = 1:1 (urease [8]): 15% | Protein long-term stability (after 30 days) Stabilize:Protein = 1:1 (cytochrome C [9]): ○ ○ ○ | Enzyme activity retention rate(%) (after 30 days) Stabilizer: Enzyme = 0.1:1 (urease [10]): 15% | Enzyme activity retention rate(%) (after 30 days) Stabilizer: Enzyme = 1:1 (urease [10]): 65% | Enzyme activity retention rate(%) (after 30 days) Stabilizer: Enzyme = 10:1 (urease [10]): 35% | Barium titanate dispersibility [11]: ○ ○ ○ ○ | Enzyme activity retention rate (%) (after 30 days) Stabilizer:Enzyme = 1:1, Mixed by mortar (urease [12]): 12% | Enzyme activity retention rate (%) (after 30 days) Stabilizer:Enzyme = 1:1, Solvent distilled away from dissolution solution (urease [12]): 65% | Redispersibility Zirconium oxide [13]: ○ ○ ○ ○ | Zirconium oxide dispersibility [14]: ○ ○ ○ ○ | DNA long-term stability (after 30 days) Stabilizer: DNA = 1:1 (DNA): ○ ○

NC(CO)(CO)CO [Working example 48]
Zinc oxide dispersibility [1]: ○ ○ ○ ○ | Redispersibility Dye [2]: ○ ○ ○ ○ | Redispersibility Titanium oxide [3]: ○ ○ ○ ○ | Titanium oxide dispersibility [4]: ○ ○ ○ ○ | Dye dispersibility [5]: ○ ○ ○ ○ | Carbon nanotube dispersibility [6]: ○ ○ | Protein long-term stability (after 30 days) Stabilizer: Protein = 0.1:1 (cytochrome C [7]): ◯ | Protein long-term stability (after 30 days) Stabilizer: Protein = 1:1 (cytochrome C [7]): ◯ | Protein long-term stability (after 30 days) Stabilizer: Protein = 10:1 (cytochrome C [7]): ◯ | Enzyme activity retention rate(%) (after 30 days) Stabilizer: Enzyme = 1:1 (urease [8]): 30% | Protein long-term stability (after 30 days) Stabilize:Protein = 1:1 (cytochrome C [9]): ○ | Enzyme activity retention rate(%) (after 30 days) Stabilizer: Enzyme = 0.1:1 (urease [10]): 18% | Enzyme activity retention rate(%) (after 30 days) Stabilizer: Enzyme = 1:1 (urease [10]): 48% | Enzyme activity retention rate(%) (after 30 days) Stabilizer: Enzyme = 10:1 (urease [10]): 52% | Barium titanate dispersibility [11]: ○ ○ ○ ○ | Enzyme activity retention rate (%) (after 30 days) Stabilizer:Enzyme = 1:1, Mixed by mortar (urease [12]): 9% | Enzyme activity retention rate (%) (after 30 days) Stabilizer:Enzyme = 1:1, Solvent distilled away from dissolution solution (urease [12]): 48% | Redispersibility Zirconium oxide [13]: ○ ○ ○ ○ | Zirconium oxide dispersibility [14]: ○ ○ ○ ○ | DNA long-term stability (after 30 days) Stabilizer: DNA = 1:1 (DNA): ○ ○

CCC(N)(CO)CO [Working example 27]
Titanium oxide dispersibility [4]: ○ ○ | Carbon nanotube dispersibility [6]: ○ ○ | Protein long-term stability (after 30 days) Stabilizer: Protein = 0.1:1 (cytochrome C [7]): ◯ ◯ | Protein long-term stability (after 30 days) Stabilizer: Protein = 1:1 (cytochrome C [7]): ◯ ◯ | Protein long-term stability (after 30 days) Stabilizer: Protein = 10:1 (cytochrome C [7]): ◯ ◯ | Enzyme activity retention rate(%) (after 30 days) Stabilizer: Enzyme = 1:1 (urease [8]): 11% | Protein long-term stability (after 30 days) Stabilize:Protein = 1:1 (cytochrome C [9]): ○ ○ | Enzyme activity retention rate(%) (after 30 days) Stabilizer: Enzyme = 0.1:1 (urease [10]): 8% | Enzyme activity retention rate(%) (after 30 days) Stabilizer: Enzyme = 1:1 (urease [10]): 74% | Enzyme activity retention rate(%) (after 30 days) Stabilizer: Enzyme = 10:1 (urease [10]): 20% | Enzyme activity retention rate (%) (after 30 days) Stabilizer:Enzyme = 1:1, Mixed by mortar (urease [12]): 10% | Enzyme activity retention rate (%) (after 30 days) Stabilizer:Enzyme = 1:1, Solvent distilled away from dissolution solution (urease [12]): 74% | Zirconium oxide dispersibility [14]: ○ ○ | DNA long-term stability (after 30 days) Stabilizer: DNA = 1:1 (DNA): ○ ○

CCCC[N+](CCCC)(CCCC)CCCC.[Br-] [Comparative example 12, tetra-n-butylammonium bromide, reference compound]
dispersed state of zinc oxide (visual) [1]: zinc oxide did not disperse, but immediately precipitated | dispersed state after redispersion (visual) ([2]; dried Vali Fast Black 3830 dispersion, 0.7 g of water added): precipitates were observed immediately after performing mixing with the mixer | dispersed state after redispersion (visual) ([3]; dried titanium oxide dispersion, 0.50 g of water added): precipitates were observed immediately after performing mixing with the mixer | dispersed state of titanium oxide (visual) [4]: a low dispersibility was observed as titanium oxide had precipitated | mixed and dispersed state of organic dye after 24 hours (visual) ([5]; 0.1 g Vali Fast Black 3830, ultrasonic dispersion): the organic dye did not disperse, but precipitated | dispersed state of carbon nanotubes (visual) [6]: the carbon nanotubes did not disperse, but precipitated | dispersed state of barium titanate (visual) [11]: barium titanate did not disperse, but immediately precipitated | dispersed state after redispersion (visual) ([13]; dried zirconium oxide dispersion, 0.50 g of water added): precipitates were observed immediately after performing mixing with the mixer | dispersed state of zirconium oxide (visual) [14]: zirconium oxide immediately precipitated, and therefore did not disperse

NC(CO)CO [Working example 26]
Titanium oxide dispersibility [4]: ○ | Dye dispersibility [5]: ○ | Carbon nanotube dispersibility [6]: ○ | Protein long-term stability (after 30 days) Stabilizer: Protein = 0.1:1 (cytochrome C [7]): ◯ | Protein long-term stability (after 30 days) Stabilizer: Protein = 1:1 (cytochrome C [7]): ◯ | Protein long-term stability (after 30 days) Stabilizer: Protein = 10:1 (cytochrome C [7]): ◯ | Enzyme activity retention rate(%) (after 30 days) Stabilizer: Enzyme = 1:1 (urease [8]): 18% | Protein long-term stability (after 30 days) Stabilize:Protein = 1:1 (cytochrome C [9]): ○ | Enzyme activity retention rate(%) (after 30 days) Stabilizer: Enzyme = 0.1:1 (urease [10]): 10% | Enzyme activity retention rate(%) (after 30 days) Stabilizer: Enzyme = 1:1 (urease [10]): 81% | Enzyme activity retention rate(%) (after 30 days) Stabilizer: Enzyme = 10:1 (urease [10]): 25% | Enzyme activity retention rate (%) (after 30 days) Stabilizer:Enzyme = 1:1, Mixed by mortar (urease [12]): 13% | Enzyme activity retention rate (%) (after 30 days) Stabilizer:Enzyme = 1:1, Solvent distilled away from dissolution solution (urease [12]): 81% | Zirconium oxide dispersibility [14]: ○ | DNA long-term stability (after 30 days) Stabilizer: DNA = 1:1 (DNA): ○

CCC(N)(CO)CO [Working example 35]
Enzyme activity retention rate(%) (after 30 days) Stabilizer: Enzyme = 1:1 (urease [8]): 10% | Enzyme activity retention rate(%) (after 30 days) Stabilizer: Enzyme = 0.1:1 (urease [10]): 9% | Enzyme activity retention rate(%) (after 30 days) Stabilizer: Enzyme = 1:1 (urease [10]): 16% | Enzyme activity retention rate(%) (after 30 days) Stabilizer: Enzyme = 10:1 (urease [10]): 22% | Enzyme activity retention rate (%) (after 30 days) Stabilizer:Enzyme = 1:1, Mixed by mortar (urease [12]): 0% | Enzyme activity retention rate (%) (after 30 days) Stabilizer:Enzyme = 1:1, Solvent distilled away from dissolution solution (urease [12]): 16% | DNA long-term stability (after 30 days) Stabilizer: DNA = 1:1 (DNA): ○ ○

NC(CO)(CO)CO [Working example 36]
Zinc oxide dispersibility [1]: ○ ○ ○ ○ | Redispersibility Dye [2]: ○ ○ ○ ○ | Redispersibility Titanium oxide [3]: ○ ○ ○ ○ | Titanium oxide dispersibility [4]: ○ ○ ○ ○ | Dye dispersibility [5]: ○ ○ ○ ○ | Protein long-term stability (after 30 days) Stabilizer: Protein = 0.1:1 (cytochrome C [7]): ◯ | Protein long-term stability (after 30 days) Stabilizer: Protein = 1:1 (cytochrome C [7]): ◯ | Protein long-term stability (after 30 days) Stabilizer: Protein = 10:1 (cytochrome C [7]): ◯ | Enzyme activity retention rate(%) (after 30 days) Stabilizer: Enzyme = 1:1 (urease [8]): 39% | Protein long-term stability (after 30 days) Stabilize:Protein = 1:1 (cytochrome C [9]): ○ ○ ○ | Enzyme activity retention rate(%) (after 30 days) Stabilizer: Enzyme = 0.1:1 (urease [10]): 27% | Enzyme activity retention rate(%) (after 30 days) Stabilizer: Enzyme = 1:1 (urease [10]): 41% | Enzyme activity retention rate(%) (after 30 days) Stabilizer: Enzyme = 10:1 (urease [10]): 45% | Barium titanate dispersibility [11]: ○ ○ ○ ○ | Enzyme activity retention rate (%) (after 30 days) Stabilizer:Enzyme = 1:1, Mixed by mortar (urease [12]): 7% | Enzyme activity retention rate (%) (after 30 days) Stabilizer:Enzyme = 1:1, Solvent distilled away from dissolution solution (urease [12]): 41% | Redispersibility Zirconium oxide [13]: ○ ○ ○ ○ | Zirconium oxide dispersibility [14]: ○ ○ ○ ○

NC(CO)(CO)CO [Working example 109]
Zinc oxide dispersibility [1]: ○ ○ ○ ○ | Redispersibility Dye [2]: ○ ○ ○ ○ | Redispersibility Titanium oxide [3]: ○ ○ ○ ○ | Titanium oxide dispersibility [4]: ○ ○ ○ ○ | Dye dispersibility [5]: ○ ○ ○ ○ | Barium titanate dispersibility [11]: ○ ○ ○ ○ | Redispersibility Zirconium oxide [13]: ○ ○ ○ ○ | Zirconium oxide dispersibility [14]: ○ ○ ○ ○
